# Reference: patent publication US7858621B2 (Amorepacific Corporation, priority 2006, dated 2010)
# Biological target: T1, vanilloid receptor (Rattus norvegicus, UniProt O35433)
# T1 construct: DRG nerve cells from the primary culture of 2 days were equilibrated; endogenous in cells; host or cells: primary culture of dorsal root ganglion neurons from neonatal SD rats
# Experiment: 45Ca influx test in cultured neonatal rat DRG neurons, inhibition of capsaicin response
# Format: cell-based
# Conditions: neonatal rat DRG neurons, capsaicin 0.5 μM, 45Ca influx; read-out: Antagonist Calcium Uptake Test (IC50)
# Outline: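 Neonatal SD rat DRG neurons, cultured 2 days with NGF (200 ng/ml) and Ara-C, were washed in HEPES (10 mM, pH 7.4)-buffered Ca/Mg-free HBSS. Test compound was added with capsaicin (final 0.5 μM) and 45Ca (10 μCi/ml) for 10 min at room temperature; 45Ca uptake counted by scintillation after SDS elution.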
# T1 sequence (O35433 whole entry): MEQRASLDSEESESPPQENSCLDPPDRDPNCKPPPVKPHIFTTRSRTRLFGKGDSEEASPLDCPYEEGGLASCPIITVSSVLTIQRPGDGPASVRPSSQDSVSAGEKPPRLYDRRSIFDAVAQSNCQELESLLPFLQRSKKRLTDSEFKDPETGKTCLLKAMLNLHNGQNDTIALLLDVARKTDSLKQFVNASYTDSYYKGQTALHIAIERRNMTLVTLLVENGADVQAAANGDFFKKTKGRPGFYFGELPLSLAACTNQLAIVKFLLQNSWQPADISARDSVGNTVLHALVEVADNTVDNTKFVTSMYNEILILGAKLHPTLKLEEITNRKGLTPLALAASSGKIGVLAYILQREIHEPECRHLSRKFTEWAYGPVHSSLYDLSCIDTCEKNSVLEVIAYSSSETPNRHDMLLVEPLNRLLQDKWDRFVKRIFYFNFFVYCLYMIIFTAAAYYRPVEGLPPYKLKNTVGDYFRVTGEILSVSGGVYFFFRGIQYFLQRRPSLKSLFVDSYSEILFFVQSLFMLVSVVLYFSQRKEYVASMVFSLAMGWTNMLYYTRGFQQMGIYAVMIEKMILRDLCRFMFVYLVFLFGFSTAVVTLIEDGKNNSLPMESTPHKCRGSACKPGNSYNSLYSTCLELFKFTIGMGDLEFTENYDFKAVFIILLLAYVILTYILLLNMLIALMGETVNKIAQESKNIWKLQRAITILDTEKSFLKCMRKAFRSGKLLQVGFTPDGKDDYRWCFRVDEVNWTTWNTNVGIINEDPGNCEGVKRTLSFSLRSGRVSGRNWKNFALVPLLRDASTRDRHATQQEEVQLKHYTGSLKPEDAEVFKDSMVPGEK
row,SMILES,IC50 [nM]
1,"CC(C)Nc1nc(C(F)(F)F)ccc1/C=C/C(=O)NCc1ccc(NS(C)(=O)=O)c(F)c1 [Example 121, N-(3-Fluoro-4-methanesulfonylamino-benzyl)-3-(2-isopropylamino-6-trifluoromethyl-pyridin-3-yl)-acrylamide]",120
2,"CC(C)Nc1nc(C(F)(F)F)ccc1/C=C/C(=O)NCc1cc(F)c(NS(C)(=O)=O)c(C#N)c1 [Example 122, N-(3-Cyano-5-fluoro-4-methanesulfonylamino-benzyl)-3-(2-isopropylamino-6-trifluoromethyl-pyridin-3-yl)-acrylamide]",76
3,"CCC(C)Nc1nc(C(F)(F)F)ccc1/C=C/C(=O)NCc1ccc(NS(C)(=O)=O)c(F)c1 (centres unmarked) [Example 123, 3-(2-sec-Butylamino-6-trifluoromethyl-pyridin-3-yl)-N-(3-fluoro-4-methanesulfonylamino-benzyl)-acrylamide]",93
4,"CCC(C)Nc1nc(C(F)(F)F)ccc1/C=C/C(=O)NCc1cc(F)c(NS(C)(=O)=O)c(C#N)c1 (centres unmarked) [Example 124, 3-(2-sec-Butylamino-6-trifluoromethyl-pyridin-3-yl)-N-(3-cyano-5-fluoro-4-methanesulfonylamino-benzyl)-acrylamide]",88
5,"C#Cc1cc(CNC(=O)/C=C/c2ccc(C(F)(F)F)nc2-c2cccc(OC)c2)cc(F)c1NS(C)(=O)=O [Example 125, N-(3-Ethynyl-5-fluoro-4-methanesulfonylamino-benzyl)-3-[2-(3-methoxy-phenyl)-6-trifluoromethyl-pyridin-3-yl]-acrylamide]",> 1000
6,"C#Cc1cc(CNC(=O)/C=C/c2ccc(C(F)(F)F)nc2-c2cccnc2)cc(F)c1NS(C)(=O)=O [Example 126, N-(3-Ethynyl-5-fluoro-4-methanesulfonylamino-benzyl)-3-(2-pyridin-3-yl-6-trifluoromethyl-pyridin-3-yl)-acrylamide]",4900
7,"CS(=O)(=O)Nc1ccc(CNC(=O)/C=C/c2ccc(C(F)(F)F)nc2Nc2ccccc2)cc1F [Example 127, N-(3-Fluoro-4-methanesulfonylamino-benzyl)-3-(2-phenylamino-6-trifluoromethyl-pyridin-3-yl)-acrylamide]",320
8,"CS(=O)(=O)Nc1c(F)cc(CNC(=O)/C=C/c2ccc(C(F)(F)F)nc2Nc2ccccc2)cc1C#N [Example 128, N-(3-Cyano-5-fluoro-4-methanesulfonylamino-benzyl)-3-(2-phenylamino-6-trifluoromethyl-pyridin-3-yl)-acrylamide]",600
9,"CCC(C)Nc1nc(C(F)(F)F)ccc1/C=C/C(=O)NCc1cc(F)c(NS(C)(=O)=O)c(F)c1 (centres unmarked) [Example 129, 3-(2-sec-Butylamino-6-trifluoromethyl-pyridin-3-yl)-N-(3,5-difluoro-4-methanesulfonylamino-benzyl)-acrylamide]",47
10,"CCC(C)Nc1nc(C(F)(F)F)ccc1/C=C/C(=O)NCc1cc(C)c(NS(C)(=O)=O)c(F)c1 (centres unmarked) [Example 130, 3-(2-sec-Butylamino-6-trifluoromethyl-pyridin-3-yl)-N-(3-fluoro-4-methanesulfonylamino-5-methyl-benzyl)-acrylamide]",54
11,"CS(=O)(=O)Nc1ccc(CNC(=O)/C=C/c2ccc(C(F)(F)F)nc2Oc2ccccc2)cc1F [Example 132, N-(3-Fluoro-4-methanesulfonylamino-benzyl)-3-(2-phenoxy-6-trifluoromethyl-pyridin-3-yl)-acrylamide]",> 3000
12,"C=Cc1cc(CNC(=O)/C=C/c2ccc(C(F)(F)F)nc2Oc2ccccc2)cc(F)c1NS(C)(=O)=O [Example 133, N-(3-Fluoro-4-methanesulfonylamino-5-vinyl-benzyl)-3-(2-phenoxy-6-trifluoromethyl-pyridin-3-yl)-acrylamide]",280
13,"C#Cc1cc(CNC(=O)/C=C/c2ccc(C(F)(F)F)nc2Oc2cccnc2)cc(F)c1NS(C)(=O)=O [Example 134, N-(3-Ethynyl-5-fluoro-4-methanesulfonylamino-benzyl)-3-[2-(pyridin-3-yloxy)-6-trifluoromethyl-pyridin-3-yl]-acrylamide]",2600
14,C#Cc1cc(CNC(=O)/C=C/c2ccc(C(F)(F)F)nc2-c2ccc(F)nc2)cc(F)c1NS(C)(=O)=O [Example 135],2300
15,"CS(=O)(=O)Nc1c(F)cc(CNC(=O)/C=C/c2ccc(C(F)(F)F)nc2-c2cccc(F)c2)cc1C#N [Example 136, N-(3-Cyano-5-fluoro-4-methanesulfonylamino-benzyl)-3-[2-(3-fluoro-phenyl)-6-trifluoromethyl-pyridin-3-yl]-acrylamide]",900
16,"C#Cc1cc(CNC(=O)/C=C/c2ccc(C(F)(F)F)nc2Sc2ccccc2)cc(F)c1NS(C)(=O)=O [Example 139, N-(3-Ethynyl-5-fluoro-4-methanesulfonylamino-benzyl)-3-(2-phenylthio-6-trifluoromethyl-pyridin-3-yl)-acrylamide]",340

row,SMILES,IC50 [nM]
1,"CS(=O)(=O)Nc1ccc(CNC(=O)/C=C/c2ccc(C(F)(F)F)nc2Sc2ccccc2)cc1F [Example 140, N-(3-fluoro-4-methanesulfonylamino-benzyl)-3-(2-phenylthio-6-trifluoromethyl-pyridin-3-yl)-acrylamide]",9700
2,"CS(=O)(=O)Nc1ccc(CNC(=O)/C=C/c2ccc(C(F)(F)F)nc2CCc2ccccc2)cc1F [Example 141, N-(3-Fluoro-4-methanesulfonylamino-benzyl)-3-(2-phenethyl-6-trifluoromethyl-pyridin-3-yl)-acrylamide]",180
3,"C#Cc1cc(CNC(=O)/C=C/c2ccc(C(F)(F)F)nc2CCc2ccccc2)cc(F)c1NS(C)(=O)=O [Example 142, N-(3-Ethynyl-5-fluoro-4-methanesulfonylamino-benzyl)-3-(2-phenethyl-6-trifluoromethyl-pyridin-3-yl)-acrylamide]",35
4,"CCCCc1nc(C(F)(F)F)ccc1/C=C/C(=O)NCc1ccc(NS(C)(=O)=O)c(F)c1 [Example 143, 3-(2-Butyl-6-trifluoromethyl-pyridin-3-yl)-N-(3-fluoro-4-methanesulfonylamino-benzyl)-acrylamide]",200
5,"C#Cc1cc(CNC(=O)/C=C/c2ccc(C(F)(F)F)nc2CCCC)cc(F)c1NS(C)(=O)=O [Example 144, 3-(2-Butyl-6-trifluoromethyl-pyridin-3-yl)-N-(3-ethynyl-5-fluoro-4-methanesulfonylamino-benzyl)-acrylamide]",33
6,"C#Cc1cc(CNC(=O)C=Cc2ccc(C(F)(F)F)nc2C#C)cc(F)c1NS(C)(=O)=O [Example 145, N-(3-Ethynyl-5-fluoro-4-methanesulfonylamino-benzyl)-3-(2-ethynyl-6-trifluoromethyl-pyridin-3-yl)-acrylamide]",1900
7,"CC(C)Cc1nc(C(F)(F)F)ccc1/C=C/C(=O)NCc1ccc(NS(C)(=O)=O)c(F)c1 [Example 147, N-(3-Fluoro-4-methanesulfonylamino-benzyl)-3-(2-isobutyl-6-trifluoromethyl-pyridin-3-yl)-acrylamide]",220
8,"C#Cc1cc(CNC(=O)/C=C/c2ccc(C(F)(F)F)nc2CC(C)C)cc(F)c1NS(C)(=O)=O [Example 148, N-(3-Ethynyl-5-fluoro-4-methanesulfonylamino-benzyl)-3-(2-isobutyl-6-trifluoromethyl-pyridin-3-yl)-acrylamide]",51
9,"C[C@@H](NC(=O)/C=C/c1ccc(C(F)(F)F)nc1Nc1ccccc1)c1ccc(NS(C)(=O)=O)c(F)c1 [Example 149, (R)—N-[1-(3-Fluoro-4-methanesulfonylamino-phenyl)-ethyl]-3-(2-phenylamino-6-trifluoromethyl-pyridin-3-yl)-acrylamide]",250
10,"C#Cc1cc(CNC(=O)/C=C/c2ccc(C(F)(F)F)nc2CC)cc(F)c1NS(C)(=O)=O [Example 150, 3-(2-Ethyl-6-trifluoromethyl-pyridin-3-yl)-N-(3-ethynyl-5-fluoro-4-methanesulfonylamino-benzyl)-acrylamide]",210
11,"CCC(C)Cc1nc(C(F)(F)F)ccc1/C=C/C(=O)NCc1ccc(NS(C)(=O)=O)c(F)c1 (centres unmarked) [Example 151, N-(3-Fluoro-4-methanesulfonylamino-benzyl)-3-[2-(2-methyl-butyl)-6-trifluoromethyl-pyridin-3-yl]-acrylamide]",150
12,"C#Cc1cc(CNC(=O)/C=C/c2ccc(C(F)(F)F)nc2CC(C)CC)cc(F)c1NS(C)(=O)=O (centres unmarked) [Example 152, N-(3-Ethynyl-5-fluoro-4-methanesulfonylamino-benzyl)-3-[2-(2-methyl-butyl)-6-trifluoromethyl-pyridin-3-yl]-acrylamide]",43
13,"C#Cc1cc(CNC(=O)/C=C/c2ccc(C(F)(F)F)nc2C#CCOC)cc(F)c1NS(C)(=O)=O [Example 153, N-(3-Ethynyl-5-fluoro-4-methanesulfonylamino-benzyl)-3-[2-(3-methoxy-prop-1-ynyl)-6-trifluoromethyl-pyridin-3-yl]-acrylamide]",1100
14,"COCC#Cc1nc(C(F)(F)F)ccc1/C=C/C(=O)NCc1ccc(NS(C)(=O)=O)c(F)c1 [Example 154, N-(3-Fluoro-4-methanesulfonylamino-benzyl)-3-[2-(3-methoxy-prop-1-ynyl)-6-trifluoromethyl-pyridin-3-yl]-acrylamide]",2100
15,"C#Cc1cc(CNC(=O)/C=C/c2ccc(C(F)(F)F)nc2CCCOC)cc(F)c1NS(C)(=O)=O [Example 155, N-(3-Ethynyl-5-fluoro-4-methanesulfonylamino-benzyl)-3-[2-(3-methoxy-propyl)-6-trifluoromethyl-pyridin-3-yl]-acrylamide]",780
16,"COCCCc1nc(C(F)(F)F)ccc1/C=C/C(=O)NCc1ccc(NS(C)(=O)=O)c(F)c1 [Example 156, N-(3-Fluoro-4-methanesulfonylamino-benzyl)-3-[2-(3-methoxy-propyl)-6-trifluoromethyl-pyridin-3-yl]-acrylamide]",2200
